Reference: patent publication US8568969B2, “RBP4 in insulin sensitivity/resistance, diabetes, and obesity” (Beth Israel Deaconess Medical Center, Inc., priority 2003, dated 2013)

Legend:
[1] = tested on: obese mice on a high fat diet (HFD); assay: Glucose tolerance test (GTT) in mice on high fat diet; type: in vivo, mouse; settings: HFD with 0.04% fenretinide for 16 weeks, 2 g/kg glucose
Experimental: (§1) Plasma glucose was measured by glucometer (One Touch Ultra, Lifescan). Insulin (crystal chemical), FFAs (Wako) and adipokines (leptin, adiponectin, and resistin) (LINCO research) were measured using commercially available kits. ITT was performed by i.p. injection of recombinant regular human insulin 3-4 hours after food removal. Different insulin doses were used for different mouse lines and ages as described. GTT was performed by i.p. injection of glucose (1 or 2 g D-glucose per kg body weight) after overnight fasting.
(§2) To determine the effect of RBP4 independently of transgenic manipulation, adult FVB mice were treated with fenretinide (4-hydroxyphenyl retinamide, 4-HPR), a synthetic retinoid originally designed for cancer therapy. […] Three-week old male FVB mice received chow diet, high fat diet or high fat diet supplemented with 0.04% fenretinide. Fenretinide gel capsules were emptied and added directly to the fat soluble vitamin component of the Harlan-Teklad laboratory high fat diet in at the time of diet preparation. Light exposure was minimized during fenretinide high fat diet preparation. Fenretinide high fat diet was stored in the dark at 4° C. and were placed in mouse cages at 2-3 day intervals. […] Thus, both genetic and pharmacological interventions that decrease RBP4 levels improve insulin sensitivity even in obesity.

[2] = Food intake, body weight and obesity on high fat diet; type: in vivo, mouse; settings: 0.04% fenretinide in high fat diet, FVB mice
Experimental: as §2

ob/ob mice [3] = assay: IPGTT in ob/ob mice treated with fenretinide; type: in vivo, mouse
Experimental: IPGTT (2 mg/g body weight) was performed on mice (12 weeks old) after 8 weeks of diet/treatment (FIG. 26A). Plasma glucose was measured at the indicated times; the open circles represent ob/+, the closed circles represent ob/ob mice and the open squares represent ob/ob mice treated with fenretinide.
IPGTT (1 mg/g body weight) was performed on mice (42 weeks old). After 38 weeks of diet/treatment (FIG. 26B), plasma glucose was measured at the indicated times; the closed squares are ob/+, the closed circles are ob/+ mice treated with fenretinide; open squares are ob/ob and open circles are ob/ob treated with fenretinide.

RXR isoforms = settings: in vitro; cited from earlier work
[4] = tested on: obese mice on a high fat diet (HFD); assay: Insulin tolerance test (ITT) in mice on high fat diet; type: in vivo, mouse; settings: HFD with 0.04% fenretinide, 15 weeks of treatment, 1.1 U/kg insulin
Experimental: as §1, §2

RBP4 with TTR = RBP4 with TTR (Homo sapiens, UniProt P02753); settings: cited from earlier work
ob/ob mice [5] = assay: Long-term mortality of ob/ob mice; type: in vivo, mouse; settings: 10 months of treatment, compared to untreated controls
Excerpt: The ob/ob mice at 10 months of age were severely obese.

serum RBP4 = target: T1, serum RBP4 (Mus musculus, UniProt Q00724); assay: Serum RBP4 levels (immunoblot) in mice fed high fat diet with fenretinide; type: in vivo; settings: oral, 0.04% fenretinide in high fat diet, FVB mice
T1 construct: from tissue; host or cells: mouse serum (FVB and AG4KO mice)
Experimental: Serum or plasma RBP4 was measured by diluting the serum or plasma 20 times in a standard detergent-containing buffer, separated by 15% SDS-PAGE, and transferred to nitrocellulose (Kim, Y. B., et al. Diabetes 48:310-320 (1999)). Mouse RBP4 and human RBP4 were detected using anti-rat or anti-human (DAKO, Germany) polyclonal antisera, respectively, followed by standard ECL detection.
as §2

With `CC1=C(/C=C/C(C)=C/C=C/C(C)=C/C(=O)Nc2ccc(O)cc2)C(C)(C)CCC1` [fenretinide, 4-hydroxyphenyl retinamide] the “glucose tolerance (GTT)” value [1] was “normalized glucose tolerance”, the body weight [2] was “did not affect” and the “development of obesity on the high fat diet” value [2] was “did not affect”. The food intake [2] was “did not affect”, the “glucose tolerance (IPGTT)” value (ob/ob mice [3]; ob/ob mice 12 weeks old, 8 weeks of treatment, 2 mg/g body weight) was “greatly improved their glucose tolerance” and the “glucose disposal (IPGTT)” value (ob/ob mice [3]; ob/ob mice 42 weeks old, 38 weeks of treatment, 1 mg/g body weight) was “improve glucosed disposal to nearly that of heterozygous mice”. For the same compound, the “activation of RXR isoforms” value (RXR isoforms) was “does not activate”, the “insulin sensitivity (ITT)” value [4] was “improved insulin sensitivity” and the “interaction of RBP4 with TTR” value (RBP4 with TTR) was “disrupts the interaction of RBP4 with TTR”. The long term mortality (ob/ob mice [5]) was “reduced by almost half” and the “serum RBP4 levels” value (serum RBP4) was “lowered serum RBP4 levels in obese mice on a high fat diet (HFD) to the level of non-obese control mice on a chow diet”.
